# Experimental data reported in patent US20240197666A1, “DITERPENOID COMPOUNDS THAT ACT ON PROTEIN KINASE C (PKC)” (K-Gen Therapeutics, Inc., priority 2021, published 2024).
# Where two headings read alike, the source gives them in different places.
# Tests used:
# C1b domain of human PKCα = biological target: T1, C1b domain of human PKCα (Homo sapiens, UniProt P17252); test: biochemical; assay type: binding; settings: 3H-PDBu competition
# T1 construct: Genes encoding C1b domains of human PKCα, δ, ε, θ, and PKD1 (PKCμ) were synthesized; made in house; host or cells: E. coli BL21(DE3)
# Hela cells = test: In vitro scratch wound healing assay; assay type: cell-based; settings: 24h
# Procedure: Scratch wound healing assay creates a gap by scratching a confluent monolayer of cells to mimic a wound and then measures the ability of cells to fill up the gap (wound) in the presence of DMSO or test compounds. 1.2-1.5×10^5 Hela cells in 1 mL media RPMI-1640 with 10% FBS were seeded in 24-well plates. Cells were starved for overnight in the same media without FBS when cells became confluent. After starvation, a scratch was made in the middle of the well and the plates were washed three times to remove detached cells. DMSO or different concentrations of compounds were diluted and added to the cells. The assay plates were put into Incucyte S3 and scanned with 4× scanner setting regularly. The imaging results were exported and the wound area was analyzed by ImageJ. Wound healing or closure was calculated by the following formula: wound healing %=(wound area at 0h−wound area at 24h)/wound area 0h*100%. Relative wound healing was calculated by dividing wound healing % of compound treatment to that of DMSO*100%.
# Namalwa (Lymphoma) = test: Proliferation of Namalwa; assay type: cell-based; settings: for IC50: read-out: IC50 Namalwa (Lymphoma)
# Outline: (§1)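 Luminescent ATP read-out (CellTiter Glo) after 96 h compound exposure gave % inhibition relative to DMSO-treated cells, from which IC50 was fitted. Seeding densities were line-specific, from 800 to 10000 cells/well. Potency across batches was normalised to reference compound K101.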
# KP-4 (Pancreatic) = test: Proliferation of KP-4; assay type: cell-based; settings: read-out: IC50 KP-4 (Pancreatic)
# Outline: as §1
# Panc2.13 (Pancreatic) = test: Proliferation of Panc2.13; assay type: cell-based; settings: for IC50: read-out: IC50 Panc2.13 (Pancreatic)
# Outline: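 Cells seeded per line (KP-4 800-1000, Panc2.13 3000, Namalwa and Mino 5000-10000 cells/well), 24 h at 37° C, then 96 h with 3-fold serial dilutions of compound, final DMSO ≤0.25%. CellTiter Glo luminescence read; % inhibition vs DMSO-only max, IC50 fitted. Potency also normalized as ratio to comparator K101 across batches.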
# [1] = test system: NFκB-driven transcription in HeLa-NFκB luciferase reporter cell line; test: NFκB luciferase reporter assay; settings: Homo sapiens, HeLa, 16 h, read-out: NFκB-luc HeLa cells EC50 (μM)
# Procedure: A HeLa-NFκB luciferase reporter cell line (Wuxi Biology) was used to assess a group of PKC activator compounds for their ability to activate NFκB-driven transcription. […] One set of cells was assayed for luciferase activity (Promega, Cat #E1500) and the other set was assayed to determine the number of viable cells (for cell number normalization) using CellTiter-Glo (CTG) kit (Promega, Cat #G7570) according to manufacture's procedures. Normalized data (luciferase value/CTG value) were analyzed using GraphPad Prism5 to calculate EC50 for each compound (see Table 8).
# To assess if activation of PKC is required for these compounds to activate NFκB, several PKC inhibitors including broad-spectrum and conventional PKC inhibitors were tested. In the assay described above, PKC inhibitors were added at the same time as the PKC activator compounds.
# PANC1 cells = test: Sphere formation assay; assay type: cell-based; settings: Homo sapiens, PANC-1, read-out: concentration exhibiting at least 50% inhibition on the sphere forming efficiency
# Procedure: A group of diterpenoid compounds of the present disclosure were tested to assess their effects on blocking formation of spheres from cancer cell lines such as PANC1, a K-Ras mutant pancreatic cell line. Briefly, PANC1 cells were harvested, re-suspended as single cell suspensions, counted and seeded into Ultra Low Attachment Culture 96-well plate (Corning, Cat #3474) at 100 cells/well in 100 μl of complete media (with 10% FBS) containing 2% Matrigel (Corning, Cat #354234) and DMSO or compounds. Six replicates per condition were seeded. The seeded cells were placed in the 37° C. tissue culture incubator. 10 μl of low serum containing media (with 0.1% FBS) was added to each well every week. Spheres formed after 3-4 weeks were counted. Sphere forming efficiency was expressed as percentage of # of spheres/ # of cells seeded.
# Panc2.13 tumors = test: Panc2.13 xenograft model, intra-tumoral injection; assay type: in vivo, mouse; settings: for Tumor growth inhibition T/C: Day 45, seven daily IT injections, Nu/Nu mice; for tumor clearance: end of efficacy study, three mice per group, seven daily IT injections
# Procedure: Immunodeficient (athymic) Nu/Nu mice were implanted at one flank subcutaneously with Panc2.13 pancreatic cancer cells. […] All groups tolerated drug treatments very well. […] Scabs formed after 1-2 weeks and the skin recovered with minimal scaring after 3-4 weeks. Tumor growth/re-growth on or near the injection site was monitored for up to 55 days. […] Tumor growth inhibition is calculated by dividing the group average tumor volume for the treated group by the group average tumor volume for the control group (TIC). A one-way ANOVA was performed to compare tumor volume among groups, and when a significant F-statistics (a ratio of treatment variance to the error variance) was obtained, comparisons between groups were carried out with Games-Howell test. All data were analyzed using GraphPad 5.0. P<0.05 was considered to be statistically significant.
# A Mann-Whitney method was performed to analyze the tumor clearance rate comparing drug treated groups with the vehicle group at the end of the efficacy study. P<0.05 was considered to be statistically significant. Vehicle-injected tumors kept growing and there was no tumor clearance at the end point.
SMILES,Ki (C1b domain of human PKCα),Relative wound healing to control (%) (Hela cells; 30 nM),Relative wound healing to control (%) (Hela cells; 100 nM),Relative wound healing to control (%) (Hela cells; 300 nM),ratio (IC50 of K101)/(IC50 of compound) Namalwa (Namalwa (Lymphoma)),IC50 (Namalwa (Lymphoma)),IC50 (KP-4 (Pancreatic)),ratio (IC50 of K101)/(IC50 of compound) Panc2.13 (Panc2.13 (Pancreatic)),IC50 (Panc2.13 (Pancreatic)),EC50 [1],IC50 (PANC1 cells),IC50 (KP-4 (Pancreatic); 96 h),Tumor growth inhibition T/C (Panc2.13 tumors),tumor clearance (Panc2.13 tumors),Relative wound healing to control (%) (Hela cells; 3 nM),Relative wound healing to control (%) (Hela cells; 10 nM),IC50 (Panc2.13 (Pancreatic); 96 h)
CC1=C[C@H]2[C@@]3(O)[C@H](C)C[C@]4(OC(=O)[C@@H](N)CC5CCCCC5)[C@H]([C@@H]3C=C(CO)C[C@]2(O)C1=O)C4(C)C,60 to 100 nM,123%,351%,287%,2.03,30 to 60 nM,100 to 200 nM,7.1,100 to 200 nM,0.03 to 0.06 µM,,,,,,,
CC1=C[C@H]2[C@@]3(O)[C@H](C)C[C@]4(OC(=O)[C@@H](N)C5Cc6ccccc6C5)[C@H]([C@@H]3C=C(CO)C[C@]2(O)C1=O)C4(C)C,,210%,248%,238%,1.6,30 to 60 nM,,5.82,100 to 200 nM,0.06 to 0.1 µM,≤ 150 nM,100 to 600 nM,,,,,
CC1=C[C@H]2[C@@]3(O)[C@H](C)C[C@]4(OC(=O)[C@@H](N)[C@]56C[C@H]7C[C@H](C[C@H](C7)C5)C6)[C@H]([C@@H]3C=C(CO)C[C@]2(O)C1=O)C4(C)C,10 to 30 nM,272%,,,18.2,1 to 10 nM,1 to 10 nM,71.7,10 to 30 nM,0.001 to 0.01 µM,≤ 50 nM,,3.3,two out of three,191%,198%,
CC1=C[C@H]2[C@@]3(O)[C@H](C)C[C@]4(OC(=O)[C@H](N)CCCCCCc5ccccc5)[C@H]([C@@H]3C=C(CO)C[C@]2(O)C1=O)C4(C)C,,239%,263%,,4.93,10 to 30 nM,30 to 60 nM,13.4,,0.01 to 0.03 µM,≤ 150 nM,,0,,,221%,100 to 600 nM
CC1=C[C@H]2[C@@]3(O)[C@H](C)C[C@]4(OC(=O)[C@@H](N)CCCCCCc5ccccc5)[C@H]([C@@H]3C=C(CO)C[C@]2(O)C1=O)C4(C)C,,267%,,,16.1,1 to 10 nM,1 to 10 nM,57.3,10 to 30 nM,0.001 to 0.01 µM,≤ 50 nM,,,one out of three,162%,237%,
